Test results reported in patent US20230390273A1, “4-PHENYL-TETRAHYDROPYRIDINE DERIVATIVES FOR TREATING HEARING DISEASES” (CILCARE DEV, priority 2021, published 2023).
Structures can show the parent of a compound that is named as a salt.

Tests used:
male Wistar rats [1] = assay: ABR/DPOAE assessment, noise-induced permanent hearing loss, immediate trans-tympanic treatment (Example 6); format: in vivo; settings: T0+28 days, versus traumatized animals untreated or vehicle; treatment 2 hours and 8 days post-noise
Procedure: Fifty male Wistar rats were selected and distributed to treatment (“traumatized paliroden” group and “traumatized xaliproden” group) and control groups (“sham” group, “traumatized” group and “traumatized vehicle” group), each group comprising at least 9 rats at the end of the study. Randomization was performed using the ABR threshold in the left ear at 16 kHz as a criterium. The “sham” group consists in rats (n=11) that received neither noise exposure nor trans-tympanic injection. The “traumatized” group consists of rats (n=9) that received noise exposure only and no treatment. The “traumatized vehicle” group consists in rats (n=10) that received noise exposure and trans-tympanic injection in both ears of 30 μL of placebo (a composition comprising Poloxamer 407 (7,2% w/w), Poloxamer 188 (8% w/w) and Cremophor EL® (20% w/w) in phosphate buffer pH=7.4, the percentages being expressed relative to the total weight of the composition) between the eardrum and the round window by means of a needle which crosses the eardrum, 4 hours after the start of the noise exposure (i.e. injection of placebo at T0+4 hours, thus 2 hours after the end of the noise exposure) and 8 days post-noise exposure, under isoflurane anesthesia. […]

male Wistar rats [2] = assay: ABR/DPOAE assessment, noise-induced permanent hearing loss, delayed trans-tympanic treatment (Example 7); format: in vivo; settings: T0+28 days, versus traumatized animals untreated or vehicle; treatment 2 days and 9 days post-noise
Procedure: Forty male Wistar rats were selected and evenly distributed to treatment and control groups, each group comprising 8 rats at the end of the study. Randomization was performed using the ABR threshold in the left ear at 16 kHz as a criterium. The “sham” group consists in rats (n=8) that received neither noise exposure nor trans-tympanic injection. The “traumatized NaCl” group consists of rats (n=8) that received noise exposure only and trans-tympanic injections of a saline solution. The “traumatized vehicle” group consists in rats (n=8) that received noise exposure and trans-tympanic injections of placebo (a composition comprising Poloxamer 407 (7,2% w/w), Poloxamer 188 (8% w/w) and Cremophor EL® (20% w/w) in phosphate buffer pH=7.4, the percentages being expressed relative to the total weight of the composition). The “traumatized paliroden” group consists in rats (n=8) that received noise exposure and trans-tympanic injections of a composition comprising paliroden (fumarate salt), corresponding to composition 4P described in Example 2. The “traumatized xaliproden” group consists in rats (n=10) that received noise exposure and a trans-tympanic injection of a composition comprising xaliproden (hydrochloride salt), corresponding to composition 4X described in Example 2. […]

SMILES	Effect on ABR thresholds, DPOAE amplitudes, ABR Wave I amplitudes (male Wistar rats [1])	Effect on ABR thresholds, DPOAE amplitudes, ABR Wave I amplitudes (male Wistar rats [2])
FC(F)(F)c1cccc(C2=CCN(CCc3ccc(-c4ccccc4)cc3)CC2)c1 [paliroden (fumarate salt), 1-[2-(4-biphenylyl)ethyl]-4-(3-trifluoromethylphenyl)-1,2,3,6-tetrahydropyridine]	did not show effect	did not show effect
FC(F)(F)c1cccc(C2=CCN(CCc3ccc4ccccc4c3)CC2)c1 [xaliproden (hydrochloride salt), 1-[2-(2-naphthyl)ethyl]-4-(3-trifluoromethylphenyl)-1,2,3,6-tetrahydropyridine]	did not show effect	did not show effect
